Experimental data published in PMC7704689 (Bioorganic & medicinal chemistry letters, 2020).

How the values were obtained:
[1] = tested on: Raji cells, a Burkitt's lymphoma (BL) cell line; experiment: Viability of Raji cells; format: cell-based, human; settings: 100 nM, 72 h
[2] = tested on: MOLT-4, SU-DHL-6, SU-DHL-10, RPMI-8226 and LCL1 cells; experiment: Activity on five other hematologic malignancy derived cell lines; format: cell-based, human; settings: MOLT-4, SU-DHL-6, SU-DHL-10, RPMI-8226, LCL1
NOD/SCID mice = settings: mouse, in vivo

| SMILES | inhibition of viability of Raji cells [1] | activity on five other cell lines [2] | mice survived (of 4 per group) (NOD/SCID mice) |
| --- | --- | --- | --- |
| COC(=O)[C@@]12OC[C@]34[C@H]([C@@H](O)[C@@H]1O)[C@@]1(C)CC(=O)C(OC(=O)[C@H](C)NC(=O)OC(C)(C)C)=C(C)[C@@H]1C[C@H]3OC(=O)[C@H](OC(=O)C=C(C)C)[C@@H]24 [Compound 6] | moderate inhibition |  |  |
| COC(=O)[C@@]12OC[C@]34[C@H]([C@@H](O)[C@@H]1O)[C@@]1(C)CC(=O)C(OC(=O)[C@@H]5CCCN5C(=O)OC(C)(C)C)=C(C)[C@@H]1C[C@H]3OC(=O)[C@H](OC(=O)C=C(C)C)[C@@H]24 [Compound 11] | moderate inhibition |  |  |
| COC(=O)[C@@]12OC[C@]34[C@H]([C@@H](O)[C@@H]1O)[C@@]1(C)CC(=O)C(OC(=O)CNC(=O)CN)=C(C)[C@@H]1C[C@H]3OC(=O)[C@H](OC(=O)C=C(C)C)[C@@H]24 [Compound 20] | potent activities comparable to or higher than the parent brusatol |  |  |
| COC(=O)[C@@]12OC[C@]34[C@H]([C@@H](O)[C@@H]1O)[C@@]1(C)CC(=O)C(OC(=O)C[C@H](C)NC(=O)C[C@H](C)N)=C(C)[C@@H]1C[C@H]3OC(=O)[C@H](OC(=O)C=C(C)C)[C@@H]24 [Compound 21] | potent activities comparable to or higher than the parent brusatol |  |  |
| COC(=O)[C@@]12OC[C@]34[C@H]([C@@H](O)[C@@H]1O)[C@@]1(C)CC(=O)C(OC(=O)[C@H](C)NC(=O)[C@H](C)N)=C(C)[C@@H]1C[C@H]3OC(=O)[C@H](OC(=O)C=C(C)C)[C@@H]24 [Compound 22] | not active |  |  |
| COC(=O)[C@@]12OC[C@]34[C@H]([C@@H](O)[C@@H]1O)[C@@]1(C)CC(=O)C(OC(=O)CNC(=O)CNC(=O)CN)=C(C)[C@@H]1C[C@H]3OC(=O)[C@H](OC(=O)C=C(C)C)[C@@H]24 [Compound 23] | potent activities comparable to or higher than the parent brusatol |  |  |
| COC(=O)[C@@]12OC[C@]34[C@H]([C@@H](O)[C@@H]1O)[C@@]1(C)CC(=O)C(OC(=O)C[C@H](C)NS(C)(=O)=O)=C(C)[C@@H]1C[C@H]3OC(=O)[C@H](OC(=O)C=C(C)C)[C@@H]24 [Compound 29] | lost activities |  |  |
| COC(=O)[C@@]12OC[C@]34[C@H]([C@@H](O)[C@@H]1O)[C@@]1(C)CC(=O)C(OCC(=O)NCCN)=C(C)[C@@H]1C[C@H]3OC(=O)[C@H](OC(=O)C=C(C)C)[C@@H]24 [Compound 40] | moderate activity | moderate to good activities |  |
| COC(=O)[C@@]12OC[C@]34[C@H]([C@@H](O)[C@@H]1O)[C@@]1(C)CC(=O)C(OC(=O)CNC(=O)OC(C)(C)C)=C(C)[C@@H]1C[C@H]3OC(=O)[C@H](OC(=O)C=C(C)C)[C@@H]24 [UPB-15] | moderate inhibition |  |  |
| COC(=O)[C@@]12OC[C@]34[C@H]([C@@H](O)[C@@H]1O)[C@@]1(C)CC(=O)C(OC(=O)C[C@H](C)N)=C(C)[C@@H]1C[C@H]3OC(=O)[C@H](OC(=O)C=C(C)C)[C@@H]24 [UPB-26, 3-(3-β-HoAla)-brusatol] | potent activities comparable to or higher than the parent brusatol |  | four |
| COC(=O)[C@@]12OC[C@]34[C@H]([C@@H](O)[C@@H]1O)[C@@]1(C)CC(=O)C(OC(=O)[C@@H]5CCCN5)=C(C)[C@@H]1C[C@H]3OC(=O)[C@H](OC(=O)C=C(C)C)[C@@H]24 [UPB-31] | potent activities comparable to or higher than the parent brusatol |  |  |
